Reference: PubChem BioAssay AID330 (DTP/NCI, 2004)
Where “and” joins values, the source holds several entries; their conditions need not be identical. Identical values can stand only once. Toxic doses and inconclusive results are not listed. How the source made its calls: active means survival T/C of 150% or more; inactive means T/C below 125% in these data.

Tested on: P388 leukemia ip, CD2F1 mice, survival T/C
Assay: NCI In Vivo Anticancer Drug Screen. Data for tumor model P388 Leukemia (intraperitoneal) in CD2F1 (CDF1) mice
Conditions: endpoint: median survival time, higher = longer survival
How it was run: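 Mice carrying the transplanted tumor received test compound or vehicle. Survival was recorded in each group, and the value is the treated-group measurement divided by that of the vehicle-treated control group.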

[1] = dose: 50.0 mg/kg/injection, schedule: Q01DX005 (ip), vehicle: saline with Tween-80
[2] = dose: 100.0 mg/kg/injection, schedule: Q01DX005 (ip), vehicle: saline with Tween-80
[3] = dose: 200.0 mg/kg/injection, schedule: Q01DX005 (ip), vehicle: saline with Tween-80
[4] = dose: 50.0 mg/kg/injection, schedule: Q01DX005 (ip), vehicle: saline
[5] = dose: 100.0 mg/kg/injection, schedule: Q01DX005 (ip), vehicle: saline
[6] = dose: 200.0 mg/kg/injection, schedule: Q01DX005 (ip), vehicle: saline
[7] = dose: 60.0 mg/kg/injection, schedule: Q01DX005 (ip), vehicle: saline with Tween-80
[8] = dose: 120.0 mg/kg/injection, schedule: Q01DX005 (ip), vehicle: saline with Tween-80
[9] = dose: 240.0 mg/kg/injection, schedule: Q01DX005 (ip), vehicle: saline with Tween-80
[10] = dose: 12.5 mg/kg/injection, schedule: Q01DX009 (ip), vehicle: saline with Tween-80
[11] = dose: 25.0 mg/kg/injection, schedule: Q01DX009 (ip), vehicle: saline with Tween-80
[12] = dose: 50.0 mg/kg/injection, schedule: Q01DX009 (ip), vehicle: saline with Tween-80
[13] = dose: 100.0 mg/kg/injection, schedule: Q01DX009 (ip), vehicle: saline with Tween-80
[14] = dose: 12.5 mg/kg/injection, schedule: Q01DX005 (ip), vehicle: saline with Tween-80
[15] = dose: 25.0 mg/kg/injection, schedule: Q01DX005 (ip), vehicle: saline with Tween-80
[16] = dose: 100.0 mg/kg/injection, schedule: Q04DX003 (ip), vehicle: Klucel (hydroxypropylcellulose) (HPC)
[17] = dose: 200.0 mg/kg/injection, schedule: Q04DX003 (ip), vehicle: Klucel (hydroxypropylcellulose) (HPC)
[18] = dose: 400.0 mg/kg/injection, schedule: Q04DX003 (ip), vehicle: Klucel (hydroxypropylcellulose) (HPC)

Measured: T/C

CCC1=Nc2ccccc2C(c2ccccc2)NC1=O (configuration not stated)
inactive: dose: 60.0 mg/kg/injection, schedule: Q01DX005 (ip), vehicle: Klucel (hydroxypropylcellulose) (HPC) 97 % of control | dose: 120.0 mg/kg/injection, schedule: Q01DX005 (ip), vehicle: Klucel (hydroxypropylcellulose) (HPC) 100 % of control | dose: 240.0 mg/kg/injection, schedule: Q01DX005 (ip), vehicle: Klucel (hydroxypropylcellulose) (HPC) 94 % of control

CN1NC1(C)C (configuration not stated)
inactive: dose: 50.0 mg/kg/injection, schedule: Q04DX002 (ip), vehicle: saline 100 % of control | dose: 100.0 mg/kg/injection, schedule: Q04DX002 (ip), vehicle: saline 110 % of control | dose: 200.0 mg/kg/injection, schedule: Q04DX002 (ip), vehicle: saline 98 % of control

O=Nc1c2cc3ccccc3[nH]c-2c2ccccc12
inactive: [1] 101 % of control | [2] 93 % of control | [3] 97 % of control

OCC1=CCN2CC[C@@H](O)[C@@H]12
inactive: [4] 93 % of control | [5] 107 % of control | [6] 93 % of control

CN(C)C1C(O)C2Oc3c(cc(O)c4c3C(=O)c3cc5c(c(O)c3C4=O)C(NC3CCCCC3)CC(C)(O)C5)C(C)(O2)C1O (configuration not stated)
inactive: dose: 2.5 mg/kg/injection, schedule: Q01DX009 (ip), vehicle: other 102 % of control | dose: 5.0 mg/kg/injection, schedule: Q01DX009 (ip), vehicle: other 105 % of control | dose: 10.0 mg/kg/injection, schedule: Q01DX009 (ip), vehicle: other 112 % of control | dose: 40.0 mg/kg/injection, schedule: Q01DX009 (ip), vehicle: other 121 % of control

CCOC(=O)C1=C(Nc2ccc(Br)cc2)C(=O)N(CC)C1
inactive: [7] 109 % of control | [8] 100 % of control | [9] 106 % of control

COc1cc(/C=C2\SC(=S)N(c3ccc(Cl)c(Cl)c3)C2=O)ccc1O
inactive: dose: 50.0 mg/kg/injection, schedule: Q01DX005 (ip), vehicle: Klucel (hydroxypropylcellulose) (HPC) 89 % of control | dose: 100.0 mg/kg/injection, schedule: Q01DX005 (ip), vehicle: Klucel (hydroxypropylcellulose) (HPC) 86 % of control | dose: 200.0 mg/kg/injection, schedule: Q01DX005 (ip), vehicle: Klucel (hydroxypropylcellulose) (HPC) 89 % of control

CCCCCCCCOC(=O)c1ccc(O)cc1
inactive: [10] 99 % of control | [11] 100 % of control | [12] 99 % of control and 96 % of control | [13] 92 % of control

COc1ccc(S(=O)(=O)N/N=C(/C(=O)O)c2ccccc2)cc1
inactive: [14] 95 % of control | [15] 94 % of control | [1] 106 % of control | [2] 100 % of control | [3] 109 % of control and 112 % of control | dose: 400.0 mg/kg/injection, schedule: Q01DX005 (ip), vehicle: saline with Tween-80 109 % of control

Oc1ccc(/C=C/c2cc(O)cc(O)c2)cc1
inactive: dose: 18.5 mg/kg/injection, schedule: Q01DX009 (ip), vehicle: Klucel (hydroxypropylcellulose) (HPC) 101 % of control | dose: 37.0 mg/kg/injection, schedule: Q01DX009 (ip), vehicle: Klucel (hydroxypropylcellulose) (HPC) 100 % of control | dose: 74.0 mg/kg/injection, schedule: Q01DX009 (ip), vehicle: Klucel (hydroxypropylcellulose) (HPC) 93 % of control

CC(=O)N(C)c1ccc(N=Nc2ccc3ncccc3c2)cc1
inactive: [14] 102 % of control | [15] 100 % of control

OCc1cnccc1Cl
inactive: dose: 60.0 mg/kg/injection, schedule: Q01DX005 (ip), vehicle: saline 95 % of control | dose: 120.0 mg/kg/injection, schedule: Q01DX005 (ip), vehicle: saline 100 % of control

Cc1nc2ccc(O)cc2c(C(=O)O)c1C(=O)O
inactive: [1] 100 % of control | [2] 96 % of control | [3] 104 % of control

CS1(=O)=N/C(=N\C(=O)Nc2ccccc2)c2ccccc21 (configuration not stated)
inactive: dose: 50.0 mg/kg/injection, schedule: Q01DX009 (ip), vehicle: Klucel (hydroxypropylcellulose) (HPC) 100 % of control | dose: 100.0 mg/kg/injection, schedule: Q01DX009 (ip), vehicle: Klucel (hydroxypropylcellulose) (HPC) 102 % of control | dose: 200.0 mg/kg/injection, schedule: Q01DX009 (ip), vehicle: Klucel (hydroxypropylcellulose) (HPC) 102 % of control

CCCC1(CCC)c2ccccc2C(Cl)(CCl)c2ccccc21
inactive: dose: 12.5 mg/kg/injection, schedule: Q01DX009 (ip), vehicle: other 103 % of control | dose: 25.0 mg/kg/injection, schedule: Q01DX009 (ip), vehicle: other 106 % of control | dose: 50.0 mg/kg/injection, schedule: Q01DX009 (ip), vehicle: other 109 % of control | dose: 100.0 mg/kg/injection, schedule: Q01DX009 (ip), vehicle: other 107 % of control | dose: 200.0 mg/kg/injection, schedule: Q01DX009 (ip), vehicle: other 109 % of control

O=C1Cn2c(c3c(nc2=O)CCCC3)N1
inactive: [7] 100 % of control | [8] 99 % of control | [9] 100 % of control

CCCCCCNc1nc(NCCCCCC)c2[nH]c(NCCCCCC)nc2n1
inactive: [1] 122 % of control

c1ccc2c(c1)oc1cc3c(cc12)ncc1cccn13
inactive: dose: 1.56 mg/kg/injection, schedule: Q01DX005 (ip), vehicle: saline with Tween-80 103 % of control | dose: 3.12 mg/kg/injection, schedule: Q01DX005 (ip), vehicle: saline with Tween-80 100 % of control | dose: 6.25 mg/kg/injection, schedule: Q01DX005 (ip), vehicle: saline with Tween-80 97 % of control | [14] 90 % of control

Nc1nc2c(C(=O)c3cccs3)nnn2c2cccc(Cl)c12
inactive: [7] 99 % of control | [8] 100 % of control | [9] 104 % of control

OC(COc1cccc(C(F)(F)F)c1)CN1CCN(c2ccc(F)cc2)CC1 (configuration not stated)
inactive: [10] 100 % of control | dose: 25.0 mg/kg/injection, schedule: Q01DX009 (ip), vehicle: distilled water + Tween-80 106 % of control | [11] 106 % of control | dose: 50.0 mg/kg/injection, schedule: Q01DX009 (ip), vehicle: distilled water + Tween-80 108 % of control | [12] 124 % of control

N#CC(C#N)=CN
inactive: [12] 94 % of control | [13] 103 % of control | dose: 200.0 mg/kg/injection, schedule: Q01DX009 (ip), vehicle: saline with Tween-80 103 % of control

CCCCCCCCCCCCCCCCCCON
inactive: [16] 97 % of control | [17] 92 % of control | [18] 94 % of control

O=S(=O)(O)C1=CC(=N/Cl)/C=CC/1=N\Cl
inactive: [4] 114 % of control and 116 % of control and 119 % of control | [5] 104 % of control and 121 % of control and 124 % of control | [6] 107 % of control and 116 % of control and 121 % of control | dose: 400.0 mg/kg/injection, schedule: Q01DX005 (ip), vehicle: saline 106 % of control

O=NNc1cccnc1
inactive: dose: 3.12 mg/kg/injection, schedule: Q01DX009 (ip), vehicle: water 108 % of control | dose: 6.25 mg/kg/injection, schedule: Q01DX009 (ip), vehicle: water 101 % of control and 105 % of control | dose: 12.5 mg/kg/injection, schedule: Q01DX009 (ip), vehicle: water 107 % of control and 110 % of control

Cc1ccc(N2C(=O)CC3(CCCCC3)C2=O)cc1[N+](=O)[O-]
inactive: [16] 93 % of control | [17] 97 % of control | [18] 99 % of control
